Laboratory results from ChEMBL document CHEMBL4627288, “Recent advances in TRPV4 agonists and antagonists” (Bioorg Med Chem Lett, 2020).

How the values were obtained:
[1] = target: Transient receptor potential cation channel subfamily V member 4 (Mus musculus, UniProt Q9EPK8); assay: Agonist activity at mouse TRPV4
[2] = target: T1, Transient receptor potential cation channel subfamily V member 4 (Homo sapiens, UniProt Q9HBA0); assay: Antagonist activity at TRPV4 (unknown origin)
[3] = target: T1, Transient receptor potential cation channel subfamily V member 4; assay: Antagonist activity at human TRPV4

T1 sequence (Q9HBA0 whole entry): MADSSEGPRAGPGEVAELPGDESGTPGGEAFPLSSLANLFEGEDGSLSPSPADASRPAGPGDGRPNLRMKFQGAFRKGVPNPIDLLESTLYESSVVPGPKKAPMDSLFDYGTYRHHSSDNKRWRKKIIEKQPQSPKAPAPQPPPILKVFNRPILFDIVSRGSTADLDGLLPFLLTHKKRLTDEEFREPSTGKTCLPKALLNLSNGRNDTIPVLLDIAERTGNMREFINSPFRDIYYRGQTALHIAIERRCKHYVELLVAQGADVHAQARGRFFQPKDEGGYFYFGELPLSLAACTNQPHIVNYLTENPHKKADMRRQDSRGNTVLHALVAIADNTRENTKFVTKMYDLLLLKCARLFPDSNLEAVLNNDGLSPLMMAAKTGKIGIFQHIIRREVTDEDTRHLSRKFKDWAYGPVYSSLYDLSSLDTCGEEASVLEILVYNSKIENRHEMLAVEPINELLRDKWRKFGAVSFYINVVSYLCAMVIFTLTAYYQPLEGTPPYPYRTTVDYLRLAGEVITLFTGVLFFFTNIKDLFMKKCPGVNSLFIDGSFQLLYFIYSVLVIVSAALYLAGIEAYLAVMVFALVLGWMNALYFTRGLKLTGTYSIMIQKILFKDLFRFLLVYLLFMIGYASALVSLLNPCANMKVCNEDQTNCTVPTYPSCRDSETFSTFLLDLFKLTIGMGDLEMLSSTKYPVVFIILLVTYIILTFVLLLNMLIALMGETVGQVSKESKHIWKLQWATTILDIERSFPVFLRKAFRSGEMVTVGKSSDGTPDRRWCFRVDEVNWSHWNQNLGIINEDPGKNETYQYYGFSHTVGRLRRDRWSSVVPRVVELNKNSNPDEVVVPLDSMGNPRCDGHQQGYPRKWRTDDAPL
Chain of Transient receptor potential cation channel subfamily V member 4 (Mus musculus, UniProt Q9EPK8) (Q9EPK8 whole entry): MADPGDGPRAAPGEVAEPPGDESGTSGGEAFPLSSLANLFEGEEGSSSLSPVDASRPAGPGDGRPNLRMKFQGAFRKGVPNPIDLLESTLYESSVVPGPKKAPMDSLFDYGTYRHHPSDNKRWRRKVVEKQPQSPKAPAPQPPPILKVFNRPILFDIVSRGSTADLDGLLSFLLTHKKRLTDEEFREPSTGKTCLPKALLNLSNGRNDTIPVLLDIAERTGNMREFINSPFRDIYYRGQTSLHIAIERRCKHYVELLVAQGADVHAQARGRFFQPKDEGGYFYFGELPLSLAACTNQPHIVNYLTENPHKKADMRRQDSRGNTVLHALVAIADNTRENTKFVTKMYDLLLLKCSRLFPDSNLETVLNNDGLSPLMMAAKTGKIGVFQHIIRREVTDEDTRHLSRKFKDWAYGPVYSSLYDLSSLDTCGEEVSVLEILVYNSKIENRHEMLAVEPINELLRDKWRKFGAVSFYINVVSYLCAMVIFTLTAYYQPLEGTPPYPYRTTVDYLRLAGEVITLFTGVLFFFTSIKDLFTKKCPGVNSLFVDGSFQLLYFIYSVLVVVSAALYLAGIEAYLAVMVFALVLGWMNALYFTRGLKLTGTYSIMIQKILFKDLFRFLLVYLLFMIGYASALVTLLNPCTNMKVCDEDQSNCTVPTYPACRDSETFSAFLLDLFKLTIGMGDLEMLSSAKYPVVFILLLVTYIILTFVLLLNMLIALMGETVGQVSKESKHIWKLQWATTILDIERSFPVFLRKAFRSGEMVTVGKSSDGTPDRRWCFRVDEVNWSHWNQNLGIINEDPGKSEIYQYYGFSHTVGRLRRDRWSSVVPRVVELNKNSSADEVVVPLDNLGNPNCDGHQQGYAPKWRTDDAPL

Structure (SMILES)	EC50 [1] [nM]	IC50 [3] [nM]	further results
CCCCC/C=C\C/C=C\C/C=C\CC1OC1CCCC(=O)O (stereo unspecified)	150		
N#Cc1ccc(OCC2(O)CN(S(=O)(=O)c3ccc(Cl)cc3Cl)C2)cc1F			IC50 [2]: 4 nM
O=[N+]([O-])c1cc(Cl)ccc1S(=O)(=O)N1CCN(Cc2ccccc2)CC1	770		
C/C=C/C=C/c1c(CC=C(C)C)cc2c(c1[C@H](Nc1ccccc1C(=O)O)[C@H]1c3c(CC=C(C)C)cc4c(c3[C@@H]3OC(=O)c5ccccc5N3[C@H]1/C=C/C)OC(C)(C)[C@H](O)C4=O)OC(C)(C)[C@@H](O)C2=O (racemic)		50.8	

Second part, led by results:

EC50 [1] [nM]	IC50 [3] [nM]	Structure (SMILES)	further results
	81800	C/C=C(\C)[C@H]1C(C)=C[C@H]2C[C@@H](C)C[C@@H](C(=O)O)[C@@H]2[C@@]1(C)C(=O)c1cccnc1	
	70000	C/C=C/C=C/c1c(CC=C(C)C)cc(CC=C(C)C)c(O)c1CO	
